Earlier results, collected in US10874130B2, “Steviol glycoside solutions” (PureCircle USA Inc., priority 2015, dated 2020).

Conditions: heat and pH

Row | Stability in carbonated beverages | SMILES
1 | heat and pH stability | C=C1C[C@@]23CC[C@H]4[C@@](C)(CCC[C@@]4(C)C(=O)O[C@@H]4O[C@H](CO)[C@@H](O)[C@H](O)[C@H]4O)[C@@H]2CC[C@]1(O[C@@H]1O[C@H](CO)[C@@H](O)[C@H](O)[C@H]1O[C@@H]1O[C@H](CO)[C@@H](O)[C@H](O)[C@H]1O)C3 [stevioside]
2 | heat and pH stability | C=C1C[C@@]23CC[C@H]4[C@@](C)(CCC[C@@]4(C)C(=O)O[C@@H]4O[C@H](CO)[C@@H](O)[C@H](O)[C@H]4O)[C@@H]2CC[C@]1(O[C@@H]1O[C@H](CO)[C@@H](O)[C@H](O[C@@H]2O[C@H](CO)[C@@H](O)[C@H](O)[C@H]2O)[C@H]1O[C@@H]1O[C@H](CO)[C@@H](O)[C@H](O)[C@H]1O)C3 [rebaudioside A]
